The text below walks through data of US20140107170A1, “COMPOSITION COMPRISING ANGIOTENSIN II RECEPTOR ANTAGONIST AND ANTIOXIDANT FOR MAINTAINING AND/OR IMPROVING SKIN PROPERTIES” (priority 2011, published 2014).

This assay concerns Dermal fibroblast cells. Put plainly: Dermal fibroblast survival under oxidative stress (H2O2), MTS viability test, Example 3. The following applies: preincubation till the next day, H2O2 (1 mmol) 15 minutes, MTS after 24 hours, valsartan 1.0 μmol, vitamin A 1 μmol, vitamin C 100 μmol, vitamin E 10 μmol. Type of assay: cell-based. The protocol: Dermal fibroblast cells were grown in Advanced MEM supplemented with antibiotics (penicillin-streptomycin), 5% fetal bovine serum and L-glutamine (2 mmol/l) at 37° C. in a CO2 incubator (5% CO2, 95% air, 95% relative humidity. Cells were detached with Tryple™select. For experiments the cells were seeded in 96-well microtitre plates at a density 5×10^3 cells/well (5×10^4 cells/ml). Two hours after seeding, when the cells attached to the surface, the medium was replaced with the medium supplemented with vitamins (ACE), valsartan or their combination. The cells were incubated till the next day and then treated with H2O2 (1 mmol) for 15 minutes. After the treatment with H2O2 the cells were washed three times with PBS and than incubated in medium for 24 hours. Then the MTS viability test was performed.
(In general: Formazan colour is commonly taken as a measure of viable cells.)

As to `CCCCC(=O)N(Cc1ccc(-c2ccccc2-c2nnn[nH]2)cc1)[C@H](C(=O)O)C(C)C` [Valsartan, valsartan], the “% of survival after treatment with H2O2” value is listed as 79%. Also, the “% of survival after treatment with H2O2” value (listed as valsartan) worked out at 79%.
